Assay results reported in patent US20080181866A1, “Amido Anti-viral Compounds” (Genelabs Technologies, Inc., priority 2006, published 2008).

System: HCV replication
Assay: HCV replicon assay (luciferase) in ET (Huh-lucubineo-ET) cell line
Assay type: cell-based
Settings: tested at 5 μM, ET replicon cells, luciferase activity measured 48-72 hours later, relative to no compound control; for inhibition at 5 µM: Hepatitis C virus
Summary of the method: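 Huh-lucubineo-ET cells stably carry a subgenomic replicon with a firefly luciferase–ubiquitin–neo fusion and adaptive NS3-5B mutations; they were seeded 24 h before compound addition (0.1 nM–50 μM, 0.5% DMSO). Luciferase was read 48–72 h later as % inhibition versus no-compound control, with parallel WST-1 cytotoxicity. EC50 and TC50 came from 10-point 2-fold dilutions fitted to a Hill equation.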

O=C(NC1CC1)c1ccc(-c2csc(NC(=O)[C@@H]3CSC(c4ccccc4F)N3C(=O)OCc3ccccc3)n2)cc1 (mixture of isomers) [Compound 7037, (R)-4-[4-(4-Cyclopropylcarbamoyl-phenyl)-thiazol-2-ylcarbamoyl]-2-(2-fluoro-phenyl)-thiazolidine-3-carboxylic acid benzyl ester]
inhibition at 5 µM: 100%

O=C(NC1CC1)c1ccc(-c2csc(NC(=O)[C@@H]3CS[C@H](c4cccnc4)N3C(=O)OCc3ccccc3)n2)cc1 [Compound 7028, (2R,4R)-4-[4-(4-Cyclopropylcarbamoyl-phenyl)-thiazol-2-ylcarbamoyl]-2-pyridin-3-yl-thiazolidine-3-carboxylic acid benzyl ester]
inhibition at 5 µM: 100%

CN(C)C(=O)CCC1SC[C@@H](C(=O)Nc2nc(-c3ccc(C(=O)NC4CC4)cc3)cs2)N1C(=O)OCc1ccccc1 (stereo partly drawn) [Compound 7118, 4-[4-(4-Cyclopropylcarbamoyl-phenyl)-thiazol-2-ylcarbamoyl]-2-(2-dimethylcarbamoyl-ethyl)-thiazolidine-3-carboxylic acid benzyl ester]
inhibition at 5 µM: 99.9%

CC(C)(C)OC(=O)N1C(c2cccnc2)SC[C@H]1C(=O)Nc1nc(-c2ccc(C(=O)NC3CC3)cc2)cs1 (single isomer, unassigned) [Compound 7055, 4-[4-(4-Cyclopropylcarbamoyl-phenyl)-thiazol-2-ylcarbamoyl]-2-pyridin-3-yl-thiazolidine-3-carboxylic acid tert-butyl ester]
% inhibition at 5 μM (5 µM): 99.1%

CC(C)(C)C(=O)N1C(C2CCOCC2)SC[C@H]1C(=O)Nc1nc(-c2ccc(C(=O)NC3CC3)cc2)cs1 (stereo partly drawn) [Compound 7070, 3-(2,2-Dimethyl-propionyl)-2-(tetrahydro-pyran-4-yl)-thiazolidine-4-carboxylic acid [4-(4-cyclopropylcarbamoyl-phenyl)-thiazol-2-yl]-amide]
inhibition at 5 µM: 96.1%

C=C1C[C@@H](C(=O)Nc2nc(-c3ccc(C(=O)NC4CC4)cc3)cs2)N(C(=O)OC(C)(C)C)C1 [Compound 7040, (S)-2-[4-(4-Cyclopropylcarbamoyl-phenyl)-thiazol-2-ylcarbamoyl]-4-methylene-pyrrolidine-1-carboxylic acid tert-butyl ester]
inhibition at 5 µM: 89.9%

O=C(NCCc1ccccc1)c1ccc(NC(=O)[C@@H]2CSC(c3ccncc3)N2C(=O)OCc2ccccc2)cc1 (stereo in doubt) [Compound 7113, 4-(4-Phenethylcarbamoyl-phenylcarbamoyl)-2-pyridin-4-yl-thiazolidine-3-carboxylic acid benzyl ester]
inhibition at 5 µM: 86.5%

O=C(NCc1ccc(NC(=O)[C@@H]2CSC(c3ccncc3)N2C(=O)OCc2ccccc2)cc1)c1ccccc1 (stereo in doubt) [Compound 7077, 4-[4-(Benzoylamino-methyl)-phenylcarbamoyl]-2-pyridin-4-yl-thiazolidine-3-carboxylic acid benzyl ester]
inhibition at 5 µM: 2.1%

O=C(NC1CC1)c1ccc(-c2csc(NC(=O)[C@@H]3CSC(C4CCOCC4)N3C(=O)[C@H]3CCCO3)n2)cc1 (stereo partly drawn) [Compound 7074, 3-(Tetrahydro-furan-2-carbonyl)-2-(tetrahydro-pyran-4-yl)-thiazolidine-4-carboxylic acid [4-(4-cyclopropylcarbamoyl-phenyl)-thiazol-2-yl]-amide]
inhibition at 5 µM: 99%

Cn1ccnc1C1SC[C@@H](C(=O)Nc2nc(-c3ccc(C(=O)NC4CC4)cc3)cs2)N1C(=O)OCc1ccccc1 (single isomer, unassigned) [Compound 7054, 4-[4-(4-Cyclopropylcarbamoyl-phenyl)-thiazol-2-ylcarbamoyl]-2-(1-methyl-1H-imidazol-2-yl)-thiazolidine-3-carboxylic acid benzyl ester]
inhibition at 5 µM: 94.1%

CC(=O)c1ccc(C2SC[C@@H](C(=O)Nc3nc(-c4ccc(C(=O)NC5CC5)cc4)cs3)N2C(=O)OCc2ccccc2)cc1 (mixture of isomers) [Compound 7109, 2-(4-Acetyl-phenyl)-4-[4-(4-cyclopropylcarbamoyl-phenyl)-thiazol-2-ylcarbamoyl]-thiazolidine-3-carboxylic acid benzyl ester]
inhibition at 5 µM: 100%

NC(=O)c1cccc(NC(=O)[C@@H]2CSC(c3ccncc3)N2C(=O)OCc2ccccc2)c1 (stereo partly drawn) [Compound 7127, 4-(3-carbamoyl-phenylcarbamoyl)-2-pyridin-4-yl-thiazolidine-3-carboxylic acid benzyl ester]
inhibition at 5 µM: 25.7%

O=C(NC1CC1)c1ccc(-c2csc(NC(=O)[C@@H]3CSC(c4ccccn4)N3C(=O)OCc3ccccc3)n2)cc1 (stereo partly drawn) [Compound 7010, (R)-4-[4-(4-Cyclopropylcarbamoyl-phenyl)-thiazol-2-ylcarbamoyl]-2-pyridin-2-yl-thiazolidine-3-carboxylic acid benzyl ester]
inhibition at 5 µM: 98.1%

O=C(NC1CC1)c1ccc(-c2csc(NC(=O)[C@@H]3C[C@@H](Cc4ccccc4)CN3C(=O)OCc3ccccc3)n2)cc1 [Compound 7006, (2S,4R)-4-Benzyl-2-[4-(4-cyclopropylcarbamoyl-phenyl)-thiazol-2-ylcarbamoyl]-pyrrolidine-1-carboxylic acid benzyl ester]
inhibition at 5 µM: 98.4%

COC(=O)CCC1SC[C@@H](C(=O)Nc2nc(-c3ccc(C(=O)NC4CC4)cc3)cs2)N1C(=O)OCc1ccccc1 (stereo partly drawn) [Compound 7121, 4-[4-(4-Cyclopropylcarbamoyl-phenyl)-thiazol-2-ylcarbamoyl]-2-(2-methoxycarbonyl-ethyl)-thiazolidine-3-carboxylic acid benzyl ester]
inhibition at 5 µM: 99.8%

O=C(NC1CC1)c1ccc(-c2csc(NC(=O)[C@@H]3COC(c4ccncc4)N3C(=O)OCc3ccccc3)n2)cc1 (stereo partly drawn) [Compound 7011, (S)-4-[4-(4-Cyclopropylcarbamoyl-phenyl)-thiazol-2-ylcarbamoyl]-2-pyridin-4-yl-oxazolidine-3-carboxylic acid benzyl ester]
inhibition at 5 µM: 98.8%

O=C(NC1CC1)c1ccc(-c2csc(NC(=O)[C@@H]3CSC(C4CCOCC4)N3C(=O)CC3CC3)n2)cc1 (stereo partly drawn) [Compound 7104, 3-(2-Cyclopropyl-acetyl)-2-(tetrahydropyran-4-yl)-thiazolidine-4-carboxylic acid [4-(4-cyclopropylcarbamoyl-phenyl)-thiazol-2-yl]-amide]
inhibition at 5 µM: 100%

COCCNC(=O)c1ccc(NC(=O)[C@@H]2CSC(c3ccncc3)N2C(=O)OCc2ccccc2)cc1 (stereo in doubt) [Compound 7135, 4-[4-(2-Methoxy-ethylcarbamoyl)-phenylcarbamoyl]-2-pyridin-4-yl-thiazolidine-3-carboxylic acid benzyl ester]
inhibition at 5 µM: 22.1%

O=C(NC1CC1)c1ccc(-c2csc(NC(=O)[C@@H]3CSC(C4CCCCC4)N3C(=O)OCc3ccccc3)n2)cc1 (mixture of isomers) [Compound 7035, (R)-2-Cyclohexyl-4-[4-(4-cyclopropylcarbamoyl-phenyl)-thiazol-2-ylcarbamoyl]-thiazolidine-3-carboxylic acid benzyl ester]
inhibition at 5 µM: 98.9%

O=C(O)CCCCC1SC[C@@H](C(=O)Nc2nc(-c3ccc(C(=O)NC4CC4)cc3)cs2)N1C(=O)OCc1ccccc1 (stereo in doubt) [Compound 7088, 2-(4-Carboxy-butyl)-4-[4-(4-cyclopropylcarbamoyl-phenyl)-thiazol-2-ylcarbamoyl]-thiazolidine-3-carboxylic acid benzyl ester]
inhibition at 5 µM: 99.8%

O=C(NC1CC1)c1ccc(-c2csc(NC(=O)[C@@H]3CSC(c4cccc(CN5CCOCC5)c4)N3C(=O)OCc3ccccc3)n2)cc1 (mixture of isomers) [Compound 7080, 4-[4-(4-Cyclopropylcarbamoyl-phenyl)-thiazol-2-ylcarbamoyl]-2-(3-morpholin-4-ylmethyl-phenyl)-thiazolidine-3-carboxylic acid benzyl ester]
inhibition at 5 µM: 100%

O=C(Nc1nc(-c2ccccc2)cs1)[C@@H]1CSC2(CCOCC2)N1C(=O)OCc1ccccc1 [Compound 7094, 3-(4-Phenyl-thiazol-2-ylcarbamoyl)-8-oxa-1-thia-4-aza-spiro[4.5]decane-4-carboxylic acid benzyl ester]
inhibition at 5 µM: 88%

O=C(NC1CC1)c1ccc(-c2csc(NC(=O)[C@@H]3CSC(c4ccncc4)N3C(=O)OCc3ccccc3)n2)cc1 (mixture of isomers) [Compound 7031, (R)-4-[4-(4-Cyclopropylcarbamoyl-phenyl)-thiazol-2-ylcarbamoyl]-2-pyridin-4-yl-thiazolidine-3-carboxylic acid benzyl ester]
inhibition at 5 µM: 99.8%

O=C(NC1CC1)c1ccc(-c2csc(NC(=O)[C@@H]3CC[C@H](c4ccccc4)N3C(=O)OCc3ccccc3)n2)cc1 [Compound 7052, (2S,5R)-2-[4-(4-Cyclopropylcarbamoyl-phenyl)-thiazol-2-ylcarbamoyl]-5-phenyl-pyrrolidine-1-carboxylic acid benzyl ester]
inhibition at 5 µM: 98.9%

O=C(Cc1cccc(NC(=O)[C@@H]2CSC(c3ccncc3)N2C(=O)OCc2ccccc2)c1)NCc1ccccc1 (stereo partly drawn) [Compound 7116, 4-[3-(Benzylcarbamoyl-methyl)-phenylcarbamoyl]-2-pyridin-4-yl-thiazolidine-3-carboxylic acid benzyl ester]
inhibition at 5 µM: 84.9%

O=C(NC1CC1)c1ccc(-c2csc(NC(=O)[C@@H]3CSC(c4cncnc4)N3C(=O)OCc3ccccc3)n2)cc1 (mixture of isomers) [Compound 7022, (R)-4-[4-(4-Cyclopropylcarbamoyl-phenyl)-thiazol-2-ylcarbamoyl]-2-pyrimidin-5-yl-thiazolidine-3-carboxylic acid benzyl ester]
inhibition at 5 µM: 100%

CN1CCC2(CC1)SC[C@@H](C(=O)Nc1nc(-c3ccc(C(=O)NC4CC4)cc3)cs1)N2C(=O)OCc1ccccc1 [Compound 7114, 3-[4-(4-Cyclopropylcarbamoyl-phenyl)-thiazol-2-ylcarbamoyl]-8-methyl-1-thia-4,8-diaza-spiro[4.5]decane-4-carboxylic acid benzyl ester]
inhibition at 5 µM: 100%
